How the values were obtained:
[1] = tested on: Tyrosine-protein kinase ABL1 (Homo sapiens), P00519 [F317I]
[2] = tested on: Tyrosine-protein kinase ABL1 (Homo sapiens), P00519 [M351T]
[3] = tested on: Tyrosine-protein kinase ABL1 (Homo sapiens), P00519 [Q252H]
[4] = tested on: Tyrosine-protein kinase ABL1 (Homo sapiens), P00519 [T315I]
[5] = target: 5'-AMP-activated protein kinase catalytic subunit alpha-2 (Homo sapiens) (UniProt P54646)
[6] = target: T1, Aurora kinase A (Homo sapiens) (UniProt O14965)
T1 sequence (whole entry): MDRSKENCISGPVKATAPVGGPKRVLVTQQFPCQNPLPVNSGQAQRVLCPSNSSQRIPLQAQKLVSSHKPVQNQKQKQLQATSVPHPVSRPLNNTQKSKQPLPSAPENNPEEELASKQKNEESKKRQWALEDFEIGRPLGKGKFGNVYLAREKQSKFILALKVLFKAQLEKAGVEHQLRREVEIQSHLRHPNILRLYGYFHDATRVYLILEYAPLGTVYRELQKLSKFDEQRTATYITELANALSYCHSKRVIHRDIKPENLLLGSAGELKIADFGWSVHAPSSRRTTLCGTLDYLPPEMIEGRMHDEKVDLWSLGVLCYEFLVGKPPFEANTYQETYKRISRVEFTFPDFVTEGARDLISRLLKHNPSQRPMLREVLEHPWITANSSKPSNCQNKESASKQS

[7] = target: Calcium/calmodulin-dependent protein kinase type II subunit alpha (Homo sapiens) (UniProt Q9UQM7)
[8] = target: Cyclin-dependent kinase 5 (Homo sapiens) (UniProt Q00535)
[9] = target: Cyclin-dependent kinase 8 (Homo sapiens) (UniProt P49336)
[10] = target: Serine/threonine-protein kinase DCLK2 (Homo sapiens) (UniProt Q8N568)
[11] = target: Serine/threonine-protein kinase DCLK3 (Homo sapiens) (UniProt Q9C098)
Chain of Serine/threonine-protein kinase DCLK3 (Homo sapiens) (Q9C098 whole entry, the tested form may be a part): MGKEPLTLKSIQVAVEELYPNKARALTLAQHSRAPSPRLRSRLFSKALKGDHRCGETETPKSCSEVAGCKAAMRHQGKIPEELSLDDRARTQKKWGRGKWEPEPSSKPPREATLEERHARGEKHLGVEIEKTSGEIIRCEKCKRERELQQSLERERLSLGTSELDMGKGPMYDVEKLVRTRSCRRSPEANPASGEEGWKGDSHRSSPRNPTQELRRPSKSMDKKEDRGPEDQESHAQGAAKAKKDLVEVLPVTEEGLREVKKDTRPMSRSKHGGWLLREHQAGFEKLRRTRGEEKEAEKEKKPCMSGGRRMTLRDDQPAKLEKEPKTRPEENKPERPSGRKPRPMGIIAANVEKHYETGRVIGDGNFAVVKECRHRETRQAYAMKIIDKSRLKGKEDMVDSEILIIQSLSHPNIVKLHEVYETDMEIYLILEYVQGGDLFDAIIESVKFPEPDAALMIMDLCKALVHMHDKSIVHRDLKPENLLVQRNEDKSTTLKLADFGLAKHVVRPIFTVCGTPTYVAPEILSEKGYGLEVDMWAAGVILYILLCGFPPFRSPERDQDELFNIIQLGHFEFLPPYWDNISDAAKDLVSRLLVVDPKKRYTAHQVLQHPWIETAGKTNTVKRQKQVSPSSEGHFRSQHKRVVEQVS

[12] = target: Epithelial discoidin domain-containing receptor 1 (Homo sapiens) (UniProt Q08345)
[13] = target: Ephrin type-A receptor 8 (Homo sapiens) (UniProt P29322)
Chain of Ephrin type-A receptor 8 (Homo sapiens) (P29322 whole entry): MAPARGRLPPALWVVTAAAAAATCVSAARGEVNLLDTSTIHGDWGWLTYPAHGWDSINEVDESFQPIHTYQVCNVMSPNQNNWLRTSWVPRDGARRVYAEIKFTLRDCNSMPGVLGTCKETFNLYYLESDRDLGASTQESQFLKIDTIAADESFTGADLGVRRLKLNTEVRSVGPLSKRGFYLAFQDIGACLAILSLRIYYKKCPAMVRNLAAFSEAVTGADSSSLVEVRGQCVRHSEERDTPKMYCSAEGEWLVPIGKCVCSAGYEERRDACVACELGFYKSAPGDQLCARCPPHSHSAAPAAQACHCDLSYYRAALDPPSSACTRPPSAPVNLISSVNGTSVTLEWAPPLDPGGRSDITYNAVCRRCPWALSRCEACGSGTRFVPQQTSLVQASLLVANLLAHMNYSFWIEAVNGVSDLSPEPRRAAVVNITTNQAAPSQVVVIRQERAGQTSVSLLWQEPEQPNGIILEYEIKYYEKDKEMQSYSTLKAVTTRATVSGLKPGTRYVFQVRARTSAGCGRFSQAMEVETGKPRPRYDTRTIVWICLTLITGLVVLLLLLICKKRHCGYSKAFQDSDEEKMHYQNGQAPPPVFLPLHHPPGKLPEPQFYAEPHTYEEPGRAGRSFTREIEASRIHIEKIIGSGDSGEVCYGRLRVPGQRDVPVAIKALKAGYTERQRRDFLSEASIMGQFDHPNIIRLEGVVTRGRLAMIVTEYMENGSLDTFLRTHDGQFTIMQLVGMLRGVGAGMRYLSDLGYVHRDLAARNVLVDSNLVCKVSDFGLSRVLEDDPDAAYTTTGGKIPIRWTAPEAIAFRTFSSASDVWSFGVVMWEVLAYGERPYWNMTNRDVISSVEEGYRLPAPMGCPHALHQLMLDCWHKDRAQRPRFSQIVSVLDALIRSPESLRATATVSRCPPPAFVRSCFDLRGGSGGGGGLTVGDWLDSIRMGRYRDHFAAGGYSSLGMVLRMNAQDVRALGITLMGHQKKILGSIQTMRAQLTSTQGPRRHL

[14] = tested on: Receptor-type tyrosine-protein kinase FLT3 (Homo sapiens), P36888 [D835Y]
[15] = tested on: Receptor-type tyrosine-protein kinase FLT3 (Homo sapiens), P36888 [UNDEFINED MUTATION]
[16] = tested on: Receptor-type tyrosine-protein kinase FLT3 (Homo sapiens), P36888 [UNDEFINED MUTATION]; remark: listed apart in the source
[17] = tested on: Receptor-type tyrosine-protein kinase FLT3 (Homo sapiens), P36888 [R834Q]
[18] = target: Rhodopsin kinase GRK1 (Homo sapiens) (UniProt Q15835)
[19] = target: Rhodopsin kinase GRK7 (Homo sapiens) (UniProt Q8WTQ7)
Chain of Rhodopsin kinase GRK7 (Homo sapiens) (Q8WTQ7 whole entry): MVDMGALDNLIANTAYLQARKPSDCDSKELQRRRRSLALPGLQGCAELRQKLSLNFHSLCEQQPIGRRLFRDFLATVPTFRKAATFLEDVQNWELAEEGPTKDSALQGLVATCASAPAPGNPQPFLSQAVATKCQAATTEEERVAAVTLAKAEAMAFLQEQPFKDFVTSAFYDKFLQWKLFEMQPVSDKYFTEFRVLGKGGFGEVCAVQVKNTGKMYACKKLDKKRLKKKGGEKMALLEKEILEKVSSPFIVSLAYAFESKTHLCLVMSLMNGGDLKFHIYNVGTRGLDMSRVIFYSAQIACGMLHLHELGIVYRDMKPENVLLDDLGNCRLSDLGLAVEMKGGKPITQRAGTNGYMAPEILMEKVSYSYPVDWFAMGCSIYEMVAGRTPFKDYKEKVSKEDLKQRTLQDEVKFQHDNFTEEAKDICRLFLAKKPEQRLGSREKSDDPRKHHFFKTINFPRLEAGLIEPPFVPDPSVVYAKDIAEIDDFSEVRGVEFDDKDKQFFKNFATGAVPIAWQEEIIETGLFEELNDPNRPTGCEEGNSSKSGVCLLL

[20] = target: Serine/threonine-protein kinase haspin (Homo sapiens) (UniProt Q8TF76)
[21] = target: Mitogen-activated protein kinase kinase kinase 13 (Homo sapiens) (UniProt O43283)
[22] = target: Microtubule-associated serine/threonine-protein kinase 1 (Homo sapiens) (UniProt Q9Y2H9)
[23] = target: Serine/threonine-protein kinase 24 (Homo sapiens) (UniProt Q9Y6E0)
[24] = target: Serine/threonine-protein kinase Nek6 (Homo sapiens) (UniProt Q9HC98)
[25] = target: Mitogen-activated protein kinase 11 (Homo sapiens) (UniProt Q15759)
Chain of Mitogen-activated protein kinase 11 (Homo sapiens) (Q15759 whole entry): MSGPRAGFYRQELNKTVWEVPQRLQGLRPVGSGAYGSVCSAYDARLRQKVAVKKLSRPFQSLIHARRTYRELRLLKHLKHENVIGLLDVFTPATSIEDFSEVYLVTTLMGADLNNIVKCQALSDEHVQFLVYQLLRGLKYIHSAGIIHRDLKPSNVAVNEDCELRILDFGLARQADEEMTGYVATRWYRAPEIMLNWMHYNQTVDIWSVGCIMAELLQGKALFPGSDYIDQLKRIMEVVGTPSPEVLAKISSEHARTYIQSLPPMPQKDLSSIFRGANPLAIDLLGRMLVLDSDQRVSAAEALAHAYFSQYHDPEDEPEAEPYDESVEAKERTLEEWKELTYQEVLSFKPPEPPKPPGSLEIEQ

[26] = target: 3-phosphoinositide-dependent protein kinase 1 (Homo sapiens) (UniProt O15530)
[27] = target: Phosphorylase b kinase gamma catalytic chain, skeletal muscle/heart isoform (Homo sapiens) (UniProt Q16816)
[28] = tested on: Phosphatidylinositol 4,5-bisphosphate 3-kinase catalytic subunit alpha isoform (Homo sapiens), P42336 [Q546K]
Chain of Phosphatidylinositol 4,5-bisphosphate 3-kinase catalytic subunit alpha isoform (Homo sapiens), P42336 [Q546K] (P42336 whole entry Q546K, canonical isoform): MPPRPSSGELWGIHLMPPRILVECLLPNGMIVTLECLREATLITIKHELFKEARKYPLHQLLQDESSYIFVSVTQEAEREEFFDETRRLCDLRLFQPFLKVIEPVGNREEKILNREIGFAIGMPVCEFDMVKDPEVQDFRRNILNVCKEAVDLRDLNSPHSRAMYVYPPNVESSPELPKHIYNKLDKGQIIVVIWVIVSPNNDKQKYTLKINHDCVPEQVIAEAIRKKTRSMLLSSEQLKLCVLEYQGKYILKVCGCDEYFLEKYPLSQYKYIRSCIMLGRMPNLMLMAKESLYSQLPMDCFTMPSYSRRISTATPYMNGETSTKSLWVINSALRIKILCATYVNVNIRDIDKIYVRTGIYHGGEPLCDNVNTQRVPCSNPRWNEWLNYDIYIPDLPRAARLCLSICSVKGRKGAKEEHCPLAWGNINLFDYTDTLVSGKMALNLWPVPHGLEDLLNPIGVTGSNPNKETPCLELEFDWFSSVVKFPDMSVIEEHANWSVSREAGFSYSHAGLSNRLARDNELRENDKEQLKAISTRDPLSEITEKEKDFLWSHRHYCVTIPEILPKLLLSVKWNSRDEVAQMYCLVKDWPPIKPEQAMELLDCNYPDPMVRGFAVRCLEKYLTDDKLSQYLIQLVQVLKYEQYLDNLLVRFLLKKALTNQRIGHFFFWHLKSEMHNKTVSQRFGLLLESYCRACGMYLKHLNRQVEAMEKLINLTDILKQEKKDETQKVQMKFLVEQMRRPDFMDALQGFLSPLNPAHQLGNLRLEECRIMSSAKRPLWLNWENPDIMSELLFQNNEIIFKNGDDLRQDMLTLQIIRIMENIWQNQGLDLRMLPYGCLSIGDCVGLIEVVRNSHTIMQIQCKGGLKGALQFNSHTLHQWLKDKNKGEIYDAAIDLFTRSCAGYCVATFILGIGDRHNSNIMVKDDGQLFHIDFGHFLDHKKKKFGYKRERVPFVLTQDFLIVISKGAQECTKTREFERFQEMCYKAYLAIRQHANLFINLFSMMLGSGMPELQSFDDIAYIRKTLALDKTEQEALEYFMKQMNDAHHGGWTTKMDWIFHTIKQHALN

[29] = target: Phosphatidylinositol 5-phosphate 4-kinase type-2 gamma (Homo sapiens) (UniProt Q8TBX8)
[30] = target: Protein kinase C iota type (Homo sapiens) (UniProt P41743)
Chain of Protein kinase C iota type (Homo sapiens) (P41743 whole entry): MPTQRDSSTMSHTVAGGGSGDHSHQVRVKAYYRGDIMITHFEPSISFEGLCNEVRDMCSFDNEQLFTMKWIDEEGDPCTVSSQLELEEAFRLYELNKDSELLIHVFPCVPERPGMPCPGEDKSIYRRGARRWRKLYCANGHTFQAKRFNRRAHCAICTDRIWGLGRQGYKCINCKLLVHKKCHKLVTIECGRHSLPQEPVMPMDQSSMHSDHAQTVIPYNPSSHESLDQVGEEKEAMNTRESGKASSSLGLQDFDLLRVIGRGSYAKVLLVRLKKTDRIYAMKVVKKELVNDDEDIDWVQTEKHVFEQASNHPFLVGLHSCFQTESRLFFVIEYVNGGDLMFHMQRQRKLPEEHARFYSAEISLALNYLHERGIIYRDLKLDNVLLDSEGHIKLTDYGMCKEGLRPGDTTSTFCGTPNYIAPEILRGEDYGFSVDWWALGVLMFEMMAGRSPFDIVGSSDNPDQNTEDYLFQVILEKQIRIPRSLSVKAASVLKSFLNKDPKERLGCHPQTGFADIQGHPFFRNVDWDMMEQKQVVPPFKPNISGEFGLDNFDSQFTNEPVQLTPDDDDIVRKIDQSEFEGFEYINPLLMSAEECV

[31] = target: RAF proto-oncogene serine/threonine-protein kinase (Homo sapiens) (UniProt P04049)
Chain of RAF proto-oncogene serine/threonine-protein kinase (Homo sapiens) (P04049 whole entry): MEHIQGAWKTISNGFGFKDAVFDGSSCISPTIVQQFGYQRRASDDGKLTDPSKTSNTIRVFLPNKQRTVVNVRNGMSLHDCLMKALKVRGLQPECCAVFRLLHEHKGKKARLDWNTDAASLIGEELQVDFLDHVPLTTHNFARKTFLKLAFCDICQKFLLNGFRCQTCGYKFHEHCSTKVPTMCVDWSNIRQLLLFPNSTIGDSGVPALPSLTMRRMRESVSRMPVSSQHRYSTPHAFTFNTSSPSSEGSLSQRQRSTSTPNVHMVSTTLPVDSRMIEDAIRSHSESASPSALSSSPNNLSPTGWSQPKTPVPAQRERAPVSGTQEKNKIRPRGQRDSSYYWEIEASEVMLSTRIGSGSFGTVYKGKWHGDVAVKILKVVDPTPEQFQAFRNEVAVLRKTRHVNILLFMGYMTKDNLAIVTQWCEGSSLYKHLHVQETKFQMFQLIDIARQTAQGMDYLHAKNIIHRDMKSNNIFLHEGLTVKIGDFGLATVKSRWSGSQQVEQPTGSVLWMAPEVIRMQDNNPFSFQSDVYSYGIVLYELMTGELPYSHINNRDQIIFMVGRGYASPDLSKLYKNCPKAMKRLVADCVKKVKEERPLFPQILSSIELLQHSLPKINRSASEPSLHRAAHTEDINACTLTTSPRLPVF

[32] = target: Ribosomal protein S6 kinase alpha-5 (Homo sapiens) (UniProt O75582)
[33] = target: Ribosomal protein S6 kinase alpha-3 (Homo sapiens) (UniProt P51812)
[34] = target: Proto-oncogene tyrosine-protein kinase Src (Homo sapiens, UniProt P12931)
[35] = target: Activated CDC42 kinase 1 (Homo sapiens) (UniProt Q07912)
[36] = target: Serine/threonine-protein kinase ULK1 (Homo sapiens) (UniProt O75385)
[37] = target: Serine/threonine-protein kinase WNK2 (Homo sapiens) (UniProt Q9Y3S1)
[38] = target: Alpha-2B adrenergic receptor (Homo sapiens) (UniProt P18089); details: Compound concentration 10.0 uM
[39] = target: Muscarinic acetylcholine receptor M5 (Homo sapiens) (UniProt P08912); details: Compound concentration 10.0 uM
[40] = Compound concentration 100.0 nM
[41] = Compound concentration 1000.0 nM

CNC(=O)c1ccc(Nc2ncc(C(F)(F)F)c(NCc3nccnc3N(C)S(C)(=O)=O)n2)cc1 [DEFACTINIB]
residual activity [1, 40]: 100%
residual activity [2, 40]: 100%
residual activity [3, 40]: 98%
residual activity [4, 40]: 45%
residual activity [5, 40]: 100%
residual activity [6, 40]: 50%
residual activity [7, 40]: 83%
residual activity [8, 40]: 81%
residual activity [9, 40]: 50%
residual activity [10, 40]: 71%
residual activity [11, 40]: 67%
residual activity [12, 40]: 100%
residual activity [13, 40]: 87%
residual activity [14, 40]: 5.9%
residual activity [15, 40]: 26%
residual activity [16, 40]: 14%
residual activity [17, 40]: 64%
residual activity [18, 40]: 99%
residual activity [19, 40]: 97%
residual activity [20, 40]: 100%
residual activity [21, 40]: 98%
residual activity [22, 40]: 100%
residual activity [23, 40]: 54%
residual activity [24, 40]: 81%
residual activity [25, 40]: 76%
residual activity [26, 40]: 81%
residual activity [27, 40]: 100%
residual activity [28, 40]: 17%
residual activity [29, 40]: 40%
residual activity [30, 40]: 84%
residual activity [31, 40]: 97%
residual activity [32, 40]: 81%
residual activity [33, 40]: 82%
residual activity [34, 40]: 79%
residual activity [35, 40]: 100%
residual activity [36, 40]: 47%
residual activity [37, 40]: 94%
inhibition [38]: 5.76%
inhibition [39]: 5.41%

CN(c1ccnc(CNc2nc(Nc3ccc4c(c3)CC(=O)N4)ncc2C(F)(F)F)n1)S(C)(=O)=O [PF-00911705]
residual activity [1, 41]: 79%
residual activity [2, 41]: 62%
residual activity [3, 41]: 94%
residual activity [4, 41]: 11%
residual activity [5, 41]: 87%
residual activity [6, 41]: 14%
residual activity [7, 41]: 67%
residual activity [8, 41]: 79%
residual activity [9, 41]: 97%
residual activity [10, 41]: 90%
residual activity [11, 41]: 43%
residual activity [12, 41]: 80%
residual activity [13, 41]: 100%
residual activity [14, 41]: 2%
residual activity [15, 41]: 5.5%
residual activity [16, 41]: 0.7%
residual activity [17, 41]: 30%
residual activity [18, 41]: 74%
residual activity [19, 41]: 29%
residual activity [20, 41]: 76%
residual activity [21, 41]: 0%
residual activity [22, 41]: 69%
residual activity [23, 41]: 93%
residual activity [24, 41]: 84%
residual activity [25, 41]: 85%
residual activity [26, 41]: 54%
residual activity [27, 41]: 76%
residual activity [28, 41]: 93%
residual activity [29, 41]: 42%
residual activity [30, 41]: 55%
residual activity [31, 41]: 85%
residual activity [32, 41]: 96%
residual activity [33, 41]: 25%
residual activity [34, 41]: 60%
residual activity [35, 41]: 86%
residual activity [36, 41]: 1.2%
residual activity [37, 41]: 22%
inhibition [38]: -4.21%
inhibition [39]: -6.47%
